Laboratory results as given in patent US9394311B2, “Triazolo compounds as PDE10 inhibitors” (Hoffmann-La Roche Inc., priority 2012, dated 2016).

Each molecule was assayed against human PDE10A (Homo sapiens (Human), UniProt Q9Y233) (assay: human PDE10A full length Scintillation Proximity Assay (SPA)). Conditions: PDE10A full length enzyme, 50 nM cGMP / [3H]-cGMP substrate, 20 minutes at room temperature.
Chain of human PDE10A (Q9Y233 other isoform, or with tags, fused parts or gaps): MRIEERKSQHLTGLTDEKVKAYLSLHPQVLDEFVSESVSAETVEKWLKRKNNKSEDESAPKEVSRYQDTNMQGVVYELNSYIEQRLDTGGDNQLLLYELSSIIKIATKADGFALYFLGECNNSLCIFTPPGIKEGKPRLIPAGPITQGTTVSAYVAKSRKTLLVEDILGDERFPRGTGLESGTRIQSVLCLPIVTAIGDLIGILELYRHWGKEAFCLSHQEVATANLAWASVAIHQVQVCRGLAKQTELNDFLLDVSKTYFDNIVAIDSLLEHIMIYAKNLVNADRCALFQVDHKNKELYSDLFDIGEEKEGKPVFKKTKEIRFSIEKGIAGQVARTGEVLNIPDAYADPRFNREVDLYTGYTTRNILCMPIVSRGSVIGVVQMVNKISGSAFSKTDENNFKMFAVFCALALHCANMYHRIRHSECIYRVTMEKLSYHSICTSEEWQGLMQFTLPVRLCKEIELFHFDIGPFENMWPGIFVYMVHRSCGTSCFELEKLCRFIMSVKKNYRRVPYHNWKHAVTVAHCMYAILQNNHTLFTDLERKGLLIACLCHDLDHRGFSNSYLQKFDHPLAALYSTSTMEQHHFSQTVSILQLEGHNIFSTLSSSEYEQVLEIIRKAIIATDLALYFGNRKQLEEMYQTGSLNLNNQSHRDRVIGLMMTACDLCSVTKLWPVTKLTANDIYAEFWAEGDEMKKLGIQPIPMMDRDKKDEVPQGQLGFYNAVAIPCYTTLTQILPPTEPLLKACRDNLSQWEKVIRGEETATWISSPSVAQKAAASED
Assay type: biochemical
Protocol: The following test was carried out in order to determine the activity of the compounds of the present invention. PDE10 activity of the compounds of the present invention was determined using a Scintillation Proximity Assay (SPA)-based method similar to the one previously described (Fawcett, L. et al., Proc Natl Acad Sci USA (2000) 97(7):3702-3707).
The human PDE10A full length assay was performed in 96-well micro titer plates. The reaction mixture of 50 μl contained 20 mM HEPES pH=7.5/10 mM MgCl2/0.05 mg/ml BSA (Sigma cat. # A-7906), 50 nM cGMP (Sigma, cat. # G6129) and 50 nM [3H]-cGMP (GE Healthcare, cat. # TRK392 S.A. 13.2 Ci/mmol), 3.75 ng/well PDE10A enzyme (Enzo Life Science, Lausen, Switzerland cat # SE-534) with or without a specific test compound. A range of concentrations of the potential inhibitor was used to generate data for calculating the concentration of inhibitor resulting in 50% of the effect (e.g. IC50, the concentration of the competitor inhibiting PDE10A activity by 50%). Non-specific activity was tested without the enzyme. The reaction was initiated by the addition of the substrate solution (cGMP and [3H]-cGMP) and allowed to progress for 20 minutes at room temperature. The reaction was terminated by adding 25 μl of YSi-SPA scintillation beads (GE Healthcare, cat. # RPNQ0150) in 18 mM zinc sulphate solution (stop reagent). After 1 h under shaking, the plate was centrifuged one minute at 170 g to allow beads to settle. Afterwards, radioactive counts were measured on a Perkin Elmer Top-Count Scintillation plate reader.
With `CCn1nc(N2CCCC2)nc1CCc1nc2c(C)ncc(C)n2n1` [Example 2, 2-[2-(2-Ethyl-5-pyrrolidin-1-yl-2H-[1,2,4]triazol-3-yl)-ethyl]-5,8-dimethyl-[1,2,4]triazolo[1,5-a]pyrazine] the IC50 was 5.57 nM.
`Cc1ncc(C)n2nc(CCc3nc(N4CC(F)(F)C4)nn3C)nc12` [Example 90, 2-{2-[5-(3,3-Difluoro-azetidin-1-yl)-2-methyl-2H-[1,2,4]triazol-3-yl]-ethyl}-5,8-dimethyl-[1,2,4]triazolo[1,5-a]pyrazine] was tested, and the IC50 was 475 nM.
For `Cc1cnc(C)n2nc(/C=C/c3nc(N4CCC4)nn3C)nc12` [Example 81, 2-[(E)-2-(5-Azetidin-1-yl-2-methyl-2H-[1,2,4]triazol-3-yl)-vinyl]-5,8-dimethyl-[1,2,4]triazolo[1,5-c]pyrimidine], the IC50 was 74.4 nM.
With `Cn1nc(N2CCCC2)nc1CCc1nc2c(Cl)cc(C(F)(F)F)cn2n1` [Example 54, 8-Chloro-2-(2-(1-methyl-3-(pyrrolidin-1-yl)-1H-1,2,4-triazol-5-yl)ethyl)-6-(trifluoromethyl)-[1,2,4]triazolo[1,5-a]pyridine] the IC50 was 105 nM.
In the case of `Cc1ccn2nc(CCc3nc(N4CCCC4)nn3C)nc2c1[N+](=O)[O-]` [Example 55, 7-Methyl-2-(2-(1-methyl-3-(pyrrolidin-1-yl)-1H-1,2,4-triazol-5-yl)ethyl)-8-nitro-[1,2,4]triazolo[1,5-a]pyridine], the IC50 is reported as 94.7 nM.
For `Cc1ncc(C)n2nc(CCc3nc(N4CCC(C(F)F)C4)nn3C)nc12` (stereo not shown) [Example 129, 2-{2-[5-(3-Difluoromethyl-pyrrolidin-1-yl)-2-methyl-2H-[1,2,4]triazol-3-yl]-ethyl}-5,8-dimethyl-[1,2,4]triazolo[1,5-a]pyrazine], the IC50 was 48.1 nM.
Molecule `Cc1ncc(C)n2nc(CCc3nc(N4CCCC4)nn3C)nc12` [Example 14, 5,8-Dimethyl-2-[2-(2-methyl-5-pyrrolidin-1-yl-2H-[1,2,4]triazol-3-yl)-ethyl]-[1,2,4]triazolo[1,5-a]pyrazine] has an IC50 of 5.76 nM.
In the case of `Cc1ncc(C)n2nc(CCc3nc(N4CCCC4)n(C4CC4)n3)nc12` [Example 123b, 2-[2-(1-Cyclopropyl-5-pyrrolidin-1-yl-1H-[1,2,4]triazol-3-yl)-ethyl]-5,8-dimethyl-[1,2,4]triazolo[1,5-a]pyrazine], the IC50 is reported as 8.2 nM.
`CCn1nc(N2CCCC2)nc1/C=C/c1nc2c(C)ncc(C)n2n1` [Example 1, 2-[2-(2-Ethyl-5-pyrrolidin-1-yl-2H-[1,2,4]triazol-3-yl)-vinyl]-5,8-dimethyl-[1,2,4]triazolo[1,5-a]pyrazine] was tested, and the IC50 was 11.9 nM.
In the case of `Cc1nc2cc(Cl)ccc2nc1C#Cc1nc(N2CCCC2)nn1C` [Example 135, 6-Chloro-3-methyl-2-(2-methyl-5-pyrrolidin-1-yl-2H-[1,2,4]triazol-3-ylethynyl)-quinoxaline], the IC50 is reported as 10.7 nM.
Work on `Cc1ncc(C)n2nc(CCc3nc(N4CCCC4)nn3CC(F)F)nc12` [Example 110, 2-{2-[2-(2,2-Difluoro-ethyl)-5-pyrrolidin-1-yl-2H-[1,2,4]triazol-3-yl]-ethyl}-5,8-dimethyl-[1,2,4]triazolo[1,5-a]pyrazine] yielded an IC50 of 3.25 nM.
Work on `Cc1nc(C(F)(F)F)n2nc(CCc3nc(N4CCCC4)nn3C)nc2c1C` [Example 103, 7,8-Dimethyl-2-(2-(1-methyl-3-(pyrrolidin-1-yl)-1H-1,2,4-triazol-5-yl)ethyl)-5-(trifluoromethyl)-[1,2,4]triazolo[1,5-c]pyrimidine] yielded an IC50 of 10.2 nM.
In the case of `Cc1c(Cl)cc(C2CC2)c2nc(CCc3nc(N4CCCC4)nn3C)nn12` [Example 77, 6-Chloro-8-cyclopropyl-5-methyl-2-[2-(2-methyl-5-pyrrolidin-1-yl-2H-[1,2,4]triazol-3-yl)-ethyl]-[1,2,4]triazolo[1,5-a]pyridine], the IC50 is reported as 9.99 nM.
For `CCc1cnc(C)n2nc(CCc3nc(N4CCCC4)nn3C)nc12` [Example 75, 8-Ethyl-5-methyl-2-(2-(1-methyl-3-(pyrrolidin-1-yl)-1H-1,2,4-triazol-5-yl)ethyl)-[1,2,4]triazolo[1,5-c]pyrimidine], the IC50 was 3.78 nM.
`Cn1nc(N2CCCC2)nc1CCc1nc2ccc(Cl)cn2n1` [Example 26, 6-Chloro-2-(2-(1-methyl-3-(pyrrolidin-1-yl)-1H-1,2,4-triazol-5-yl)ethyl)-[1,2,4]triazolo[1,5-a]pyridine] gave an IC50 of 62.7 nM.
Molecule `Cc1cnc(C)n2nc(CCc3nc(N4CCC[C@@H]4C)nn3C)nc12` [Example 112, 5,8-Dimethyl-2-{2-[2-methyl-5-((S)-2-methyl-pyrrolidin-1-yl)-2H-[1,2,4]triazol-3-yl]-ethyl}-[1,2,4]triazolo[1,5-c]pyrimidine] has an IC50 of 9 nM.
For `Cc1ccc(C)n2nc(CCc3nc(N4CCCC4)nn3C)nc12` [Example 37, 5,8-Dimethyl-2-(2-(1-methyl-3-(pyrrolidin-1-yl)-1H-1,2,4-triazol-5-yl)ethyl)-[1,2,4]triazolo[1,5-a]pyridine], the IC50 was 4.21 nM.
With `Cc1ncc(C)n2nc(CCc3nc(N4CCCC4C)nn3C)nc12` (stereo not shown) [Example 51, 5,8-Dimethyl-2-{2-[2-methyl-5-(2-methyl-pyrrolidin-1-yl)-2H-[1,2,4]triazol-3-yl]-ethyl}-[1,2,4]triazolo[1,5-a]pyrazine] the IC50 was 28.4 nM.
Work on `Cc1c(Cl)cc(C(F)(F)F)c2nc(C#Cc3nc(N4CCCC4)nn3C)nn12` [Example 91, 6-Chloro-5-methyl-2-(2-methyl-5-pyrrolidin-1-yl-2H-[1,2,4]triazol-3-ylethynyl)-8-trifluoromethyl-[1,2,4]triazolo[1,5-a]pyridine] yielded an IC50 of 0.88 nM.
In the case of `Cc1ncc(C)n2nc(CCc3nc(N4CC[C@H](F)C4)nn3C)nc12` [Example 94, 2-{2-[5-((S)-3-Fluoro-pyrrolidin-1-yl)-2-methyl-2H-[1,2,4]triazol-3-yl]-ethyl}-5,8-dimethyl-[1,2,4]triazolo[1,5-a]pyrazin], the IC50 is reported as 122 nM.
Molecule `Cn1nc(N2CCCC2)nc1CCc1nc2ccc(C#N)cn2n1` [Example 53, 2-(2-(1-Methyl-3-(pyrrolidin-1-yl)-1H-1,2,4-triazol-5-yl)ethyl)-[1,2,4]triazolo[1,5-a]pyridine-6-carbonitrile] has an IC50 of 381 nM.
Work on `Cc1c(Cl)cc(S(C)(=O)=O)c2nc(CCc3nc(N4CCCC4)nn3C)nn12` [Example 73, 6-Chloro-8-methanesulfonyl-5-methyl-2-[2-(2-methyl-5-pyrrolidin-1-yl-2H-[1,2,4]triazol-3-yl)-ethyl]-[1,2,4]triazolo[1,5-a]pyridine] yielded an IC50 of 86.9 nM.
In the case of `Cc1ncc(C)n2nc(CCc3nc(N4CC5CCC5C4)nn3C)nc12` (stereo not shown) [Example 99, 2-{2-[5-(3-Aza-bicyclo[3.2.0]hept-3-yl)-2-methyl-2H-[1,2,4]triazol-3-yl]-ethyl}-5,8-dimethyl-[1,2,4]triazolo[1,5-a]pyrazine], the IC50 is reported as 273 nM.
Molecule `Cc1c(Cl)cc(OCCN2CCOCC2)c2nc(CCc3nc(N4CCCC4)nn3C)nn12` [Example 121, 4-[2-[[6-Chloro-5-methyl-2-[2-(2-methyl-5-pyrrolidin-1-yl-1,2,4-triazol-3-yl)ethyl]-[1,2,4]triazolo[1,5-a]pyridin-8-yl]oxy]ethyl]morpholine] has an IC50 of 1.37 nM.
For `Cc1c(Cl)cc(Cl)c2nc(CCc3n[nH]c(N4CCCC4)n3)nn12` [Example 68, 6,8-Dichloro-5-methyl-2-[2-(5-pyrrolidin-1-yl-1H-[1,2,4]triazol-3-yl)-ethyl]-[1,2,4]triazolo[1,5-a]pyridine], the IC50 was 0.22 nM.
`Cc1ncc(C)n2nc(CCc3nc(N4CCCC4)nn3-c3ccccc3)nc12` [Example 109, 5,8-Dimethyl-2-[2-(2-phenyl-5-pyrrolidin-1-yl-2H-[1,2,4]triazol-3-yl)-ethyl]-[1,2,4]triazolo[1,5-a]pyrazine] showed an IC50 of 0.29 nM.
`Cc1cccc2nc(CCc3nc(N4CCCC4)nn3C)nn12` [Example 29, 5-Methyl-2-(2-(1-methyl-3-(pyrrolidin-1-yl)-1H-1,2,4-triazol-5-yl)ethyl)-[1,2,4]triazolo[1,5-a]pyridine] showed an IC50 of 55.9 nM.
`Cc1c(Cl)cc(C(F)(F)F)c2nc(CCc3nc(N4CCCC4)nn3C)nn12` [Example 69, 6-Chloro-5-methyl-2-[2-(2-methyl-5-pyrrolidin-1-yl-2H-[1,2,4]triazol-3-yl)-ethyl]-8-trifluoromethyl-[1,2,4]triazolo[1,5-c]pyridine] showed an IC50 of 0.5 nM.
With `Cn1nc(N2CCCC2)nc1CCc1nc2cccc(C(F)(F)F)n2n1` [Example 64, 2-(2-(1-Methyl-3-(pyrrolidin-1-yl)-1H-1,2,4-triazol-5-yl)ethyl)-5-(trifluoromethyl)-[1,2,4]triazolo[1,5-a]pyridine] the IC50 was 56.6 nM.
Molecule `Cc1ncc(C)n2nc(CCc3nc(N4CC[C@@H](NC(=O)OC(C)(C)C)C4)nn3C)nc12` [Example 107, ((R)-1-{5-[2-(5,8-Dimethyl-[1,2,4]triazolo[1,5-a]pyrazin-2-yl)-ethyl]-1-methyl-1H-[1,2,4]triazol-3-yl}-pyrrolidin-3-yl)-carbamic acid tert-butyl ester] has an IC50 of 171 nM.
`Cc1c(Cl)cc(C(C)(C)O)c2nc(CCc3nc(N4CCCC4)nn3C)nn12` [Example 80, 2-{6-Chloro-5-methyl-2-[2-(2-methyl-5-pyrrolidin-1-yl-2H-[1,2,4]triazol-3-yl)-ethyl]-[1,2,4]triazolo[1,5-c]pyridin-8-yl}-propan-2-ol] showed an IC50 of 76.3 nM.
